Measured values as given in patent US20120322869A1, “ESTER COMPOUND AND USE THEREOF” (SUMITOMO CHEMICAL COMPANY, LIMITED, priority 2010, published 2012).

Columns and labels:
[1] = system: German cockroaches (Blattella germanica); assay: Spray knock-down test with 0.1% (w/v) oil solution on German cockroaches (Test Example 2); format: in vivo; details: adult Blattella germanica, 1.5 ml of 0.1% (w/v) oil solution sprayed
Protocol: Zero point one (0.1) part of the compound of the present inventions (1) and (2) was dissolved in 10 parts of isopropyl alcohol and the solution was mixed with 89.9 parts of deodorized kerosene to prepare a 0.1% (w/v) oil solution.
Ten adult German cockroaches (Blattella germanica, 5 males and 5 females) were released in a test container (diameter 8.75 cm, 7.5 cm high, the bottom face is made of 16 mesh metallic wire), the inner face on which butter was applied, and the container was set at the bottom of a test chamber (bottom face: 46 cm×46 cm, height: 70 cm).
Each 1.5 ml of the oil solution of the compound of the present invention (1) and (2) was sprayed using a spray gun at a pressure of 0.4 kg/cm^2 from 60 cm higher than the upper face of the container. Thirty seconds after the spraying, the container was pulled out from the chamber. Two minutes after spraying, the number of knocked-down […] was counted and a knock-down ratio was determined. A knocked-down ratio was calculated by the following equation.
Knocked-down ratio=(Number of knocked-down cockroaches/Number of test cockroaches)×100

[2] = system: American cockroaches (Periplaneta americana); assay: Spray knock-down test with 0.1% (w/v) oil solution on American cockroaches (Test Example 1); format: in vivo; details: adult Periplaneta americana, 1.5 ml of 0.1% (w/v) oil solution sprayed
Protocol: Zero point one (0.1) part of the compound of the present inventions (1) was dissolved in 10 parts of isopropyl alcohol and the solution was mixed with 89.9 parts of deodorized kerosene to prepare a 0.1% (w/v) oil solution.
Six adult American cockroaches (Periplaneta americana, 3 males and 3 females) were released in a test container (diameter 12.5 cm, 10 cm high, the bottom face is made of 16 mesh metallic wire), the inner face on which butter was applied, and the container was set at the bottom of a test chamber (bottom face: 46 cm×46 cm, height: 70 cm). Each 1.5 ml of the oil solution of the compound of the present invention (1) was sprayed using a spray gun at a pressure of 0.4 kg/cm^2 from 60 cm higher than the upper face of the container. Thirty seconds after the spraying, the container was pulled out from the chamber. After a prescribed time, the number of knocked-down cockroaches was counted and a knock-down ratio was determined (repeated twice). The knocked-down ratio was calculated by the following equation.
Knocked-down ratio (%) (Number of knocked-down cockroaches/Number of test cockroaches)×100

SMILES	Knock-down ratio (%) 2 minutes after spraying [1] [%]	Knock-down ratio (%) 5 minutes after spraying [2] [%]
C=CCC1=C(C)C(OC(=O)[C@@H]2[C@@H](C=C(C#N)SC)C2(C)C)CC1=O (relative stereo) [compound of the present invention (2), 2-methyl-3-(2-propenyl)cyclopent-2-en-4-on-1-yl=(1R)-trans-3-[(1EZ)-2-cyano-2-(methylthio)ethenyl]-2,2-dimethylcyclopropanecarboxylate]	100	–
C#CCC1=C(C)[C@@H](OC(=O)[C@@H]2[C@@H](/C=C(\C#N)SC)C2(C)C)CC1=O [compound of the present invention (1), (S)-2-methyl-3-(2-propynyl)cyclopent-2-en-4-on-1-yl=(1R)-trans-3-[(1E)-2-cyano-2-(methylthio)ethenyl]-2,2-dimethylcyclopropane carboxylate]	100	100
